Assay results published in patent publication KR20210056931A, “피리메타민을 유효성분으로 포함하는 면역 관련 질환의 치료 또는 예방용 약학 조성물” (priority 2019, dated 2021).
“And” between values parts separate entries of the source, which are not always exact repeats. Identical values can stand only once.

Assays:
[1] = test system: rheumatoid arthritis model, DBA-1J Mice [류마티스 관절염 모델]; experiment: Arthritis score in rheumatoid arthritis animal model, dose regimen study, Experiment 6; assay type: in vivo, mouse
[2] = test system: rheumatoid arthritis model, DBA-1J Mice [류마티스 관절염 모델]; experiment: Paw edema in rheumatoid arthritis animal model, dose regimen study, Experiment 6; assay type: in vivo, mouse; details: for Paw edema, HL, mean / Paw edema, HR, mean / Paw edema, HL, individual animal / Paw edema, HR, individual animal: Day 14; for Paw edema, HL, individual animal / Paw edema, HR, individual animal: listed as Py

## CCc1nc(N)nc(N)c1-c1ccc(Cl)cc1 [피리메타민, Pyrimethamine]
[1]; Day 5, G8: Py 1 mg/kg/day BID PO
  Arthritis score: 7.0±1.3 total score
[1]; Day 5, G9: Py 1 mg/kg/day QD PO
  Arthritis score: 6.8±1.7 total score
[1]; Day 5, G10: Py 3 mg/kg/day BID PO
  Arthritis score: 6.2±2.4 total score
[1]; Day 5, G11: Py 5 mg/kg QD PO
  Arthritis score: 5.8±2.5 total score
[1]; Day 5, G12: Py 15 mg/kg/day QD PO
  Arthritis score: 5.5±1.5 total score
[1]; Day 7, G7: Py 1 mg/kg/day QD IP
  Arthritis score: 9.2±1.5 total score
[1]; Day 7, G8: Py 1 mg/kg/day BID PO
  Arthritis score: 9.5±1.5 total score
[1]; Day 7, G9: Py 1 mg/kg/day QD PO
  Arthritis score: 9.3±2.0 total score
[1]; Day 7, G10: Py 3 mg/kg/day BID PO
  Arthritis score: 7.8±2.9 total score
[1]; Day 7, G11: Py 5 mg/kg QD PO
  Arthritis score: 6.7±2.2 total score
[1]; Day 7, G12: Py 15 mg/kg/day QD PO
  Arthritis score: 6.3±2.0 total score
[1]; Day 9, G7: Py 1 mg/kg/day QD IP
  Arthritis score: 9.8±1.9 total score
[1]; Day 9, G8: Py 1 mg/kg/day BID PO
  Arthritis score: 10.3±2.2 total score
[1]; Day 9, G9: Py 1 mg/kg/day QD PO
  Arthritis score: 10.5±2.7 total score
[1]; Day 9, G10: Py 3 mg/kg/day BID PO
  Arthritis score: 8.2±2.9 total score
[1]; Day 9, G11: Py 5 mg/kg QD PO
  Arthritis score: 7.5±3.0 total score
[1]; Day 9, G12: Py 15 mg/kg/day QD PO
  Arthritis score: 7.5±2.1 total score
[1]; Day 12, G7: Py 1 mg/kg/day QD IP
  Arthritis score: 11.2±2.5 total score
[1]; Day 12, G8: Py 1 mg/kg/day BID PO
  Arthritis score: 11.7±2.7 total score
[1]; Day 12, G9: Py 1 mg/kg/day QD PO
  Arthritis score: 12.0±2.6 total score
[1]; Day 12, G10: Py 3 mg/kg/day BID PO
  Arthritis score: 9.8±2.9 total score
[1]; Day 12, G11: Py 5 mg/kg QD PO
  Arthritis score: 8.8±2.5 total score
[1]; Day 12, G12: Py 15 mg/kg/day QD PO
  Arthritis score: 7.7±2.1 total score
[1]; Day 14, G7: Py 1 mg/kg/day QD IP
  Arthritis score: 11.7±2.7 total score
[1]; Day 14, G8: Py 1 mg/kg/day BID PO
  Arthritis score: 12.3±2.9 total score
[1]; Day 14, G9: Py 1 mg/kg/day QD PO
  Arthritis score: 12.7±2.9 total score
[1]; Day 14, G10: Py 3 mg/kg/day BID PO
  Arthritis score: 10.5±3.0 total score
[1]; Day 14, G11: Py 5 mg/kg QD PO
  Arthritis score: 9.5±2.6 total score
[1]; Day 14, G12: Py 15 mg/kg/day QD PO
  Arthritis score: 8.2±2.0 total score
[1]; Py 1 mg/kg/day QD PO and IP, 1 and 3 mg/kg/day BID PO, 5 mg/kg/day QD PO
  Arthritis score (in words): 관절염 지수가 개선되지 않은
[1]; Py 15 mg/kg/day QD PO
  Arthritis score (in words): 관절염 지수가 현저하게 감소
[2]; G7: Py 1 mg/kg/day QD IP
  Paw edema, HL, mean: 0.17 mL
  Paw edema, HR, mean: 0.17 mL
  Paw edema, HL, individual animal: 0.18 mL and 0.19 mL and 0.17 mL and 0.12 mL and 0.14 mL
  Paw edema, HR, individual animal: 0.17 mL and 0.18 mL and 0.14 mL and 0.19 mL
[2]; G8: Py 1 mg/kg/day BID PO
  Paw edema, HL, mean: 0.16 mL
  Paw edema, HR, mean: 0.17 mL
  Paw edema, HL, individual animal: 0.14 mL and 0.13 mL and 0.17 mL and 0.19 mL and 0.20 mL
  Paw edema, HR, individual animal: 0.18 mL and 0.19 mL and 0.17 mL and 0.14 mL
[2]; G9: Py 1 mg/kg/day QD PO
  Paw edema, HL, mean: 0.17 mL
  Paw edema, HR, mean: 0.18 mL
  Paw edema, HL, individual animal: 0.13 mL and 0.20 mL and 0.17 mL and 0.19 mL
  Paw edema, HR, individual animal: 0.19 mL and 0.16 mL and 0.17 mL
[2]; G10: Py 3 mg/kg/day BID PO
  Paw edema, HL, mean: 0.15 mL
  Paw edema, HR, mean: 0.16 mL
  Paw edema, HL, individual animal: 0.16 mL and 0.20 mL and 0.13 mL and 0.15 mL
  Paw edema, HR, individual animal: 0.17 mL and 0.14 mL and 0.16 mL and 0.15 mL and 0.19 mL
[2]; G11: Py 5 mg/kg QD PO
  Paw edema, HL, mean: 0.18 mL
  Paw edema, HR, mean: 0.18 mL
  Paw edema, HL, individual animal: 0.16 mL and 0.20 mL and 0.19 mL and 0.17 mL and 0.14 mL
  Paw edema, HR, individual animal: 0.19 mL and 0.20 mL and 0.16 mL
[2]; G12: Py 15 mg/kg/day QD PO
  Paw edema, HL, mean: 0.14 mL
  Paw edema, HR, mean: 0.14 mL
  Paw edema, HL, individual animal: 0.19 mL and 0.13 mL and 0.11 mL and 0.14 mL
  Paw edema, HR, individual animal: 0.11 mL and 0.16 mL and 0.14 mL and 0.13 mL and 0.15 mL
[2]; Py 15 mg/kg/day QD PO
  Paw edema (in words): 피리메타민 15 mg/kg/day QD 경구투여군에서만 개선
